Earlier results on 1 compound are cited in patent US20130178495A1, “IBUDILAST FOR RELIEVING NEGATIVE EFFECTS OF MEDICATION OVERUSE HEADACHE” (MediciNova, Inc., priority 2011, published 2013).

The conditions of data set [1]: rat, bilateral indwelling catheters between the meninges and the skull.
The conditions of data set [2]: single patient, 20 mg per day of ibudilast.

Consider `CC(C)C(=O)c1c(C(C)C)nn2ccccc12` [ibudilast], for which the facial allodynia result in data set [1] was “blocked and reversed facial allodynia”. Moreover, the “frequency and intensity of migraine” value in data set [2] (migraine on the right side continued) was “decreased”. For the same compound, the daily headaches result in data set [2] (no control) is “disappeared in one week”.
